Values quoted from earlier work as cited in patent publication US20200360268A1, “INJECTABLE PHARMACEUTICAL COMPOSITION CONTAINING MELOXICAM, AND PREPARATION METHOD THEREFOR” (Jiangsu Hengrui Medicine Co., Ltd., priority 2017, published 2020).
Values after ≈ are worked out from the molar mass of the structure shown.

Settings: pH 1.2 and 4.0

## Cc1cnc(NC(=O)C2=C(O)c3ccccc3S(=O)(=O)N2C)s1 [Meloxicam]
  solubility: 0.6 µg/mL (≈ 1.71 µM)
